The values below come from patent US20170051002A1, “Rebaudioside A Crystal And Its Preparation Method And Use” (Zhucheng Haotian Pharm Co., Ltd., priority 2014, published 2017).

Data set [1] can be described thus: dynamic vapor adsorption (DVS) hygroscopicity. In kind it is physicochemical. The following applies: conventional storage environment 40%-80% RH; 25° C. The protocol: “Dynamic vapor adsorption (DVS)” is an instrument for measuring the hygroscopicity of a sample. Its measurement method is known in the field. For example, an instrument from Surface Measurement Systems, Ltd. may be used to collect data of humidity ranging from 5% to 95% at 25 degrees Celsius. The weight deviation under each humidity is no more than ±0.02% within 10 min. The rebaudioside A Form 7 of the present invention has particular stability, which is conducive to storage. […] In a preferred embodiment, the DVS isotherm of the resulting rebaudioside A crystal form 7 is substantially identical to FIG. 4. DVS: All dynamic vapour adsorption (DVS) experimental data of the present invention are measured by a DVS Intrinsic dynamic vapour sorption instrument from SMS, UK. Measurement conditions: Temperature: 25° C.; Relative humidity range: 5%-95%.

For data set [2] the following is noted: large number of scientific experiments; cited from earlier work.
Data set [3] is described as follows: storage stability at 25° C. RH 60% for 3 months (crystal form, HPLC purity). In kind it is physicochemical. Particulars: after standing for 3 months. On the procedure: The maximum solubility of the sample obtained according to the above-mentioned examples is about 30 mg/mL, and the form remains unchanged when stored at 25° C. RH 60% for 3 months from the results of HPLC analysis (purity is detected by high performance liquid chromatography, and the liquid chromatographic column and liquid chromatography used are the same as those specified by JECFA in 2010).
Perparation of sample solution: Precisely 50-100 milligrams of rebaudioside A were weighed and placed in a 50 milliliter volumetric flask, and then a solution of water and acetonitrile in a ratio of 7:3 were added for dissolution to a scale of 50 milliliter. Detection step: 5 μl of a sample solution are injected under the following conditions. Chromatographic Column: A Capcell pak C18 MG II chromatographic column from the Shiseido company or a Luna 5μ C18(2) 100A chromatographic column from the Phenomenex company or a chromatographic column of equivalent specifications (length: 250 millimeters; inner diameter: 4.6 millimeters; packing particle size: 5 μm). Mobile Phase: a mixture of acetonitrile and a sodium phosphate buffer (specification: 10 mmol/L, pH value of 2.6) in a ratio of 32:68. […] Chromatographic Column temperature: detection patterns are recorded for about 30 minutes at 40° C. […]

On to `C=C1C[C@@]23CC[C@H]4[C@@](C)(CCC[C@@]4(C)C(=O)O[C@@H]4O[C@H](CO)[C@@H](O)[C@H](O)[C@H]4O)[C@@H]2CC[C@]1(O[C@@H]1O[C@H](CO)[C@@H](O)[C@H](O[C@@H]2O[C@H](CO)[C@@H](O)[C@H](O)[C@H]2O)[C@H]1O[C@@H]1O[C@H](CO)[C@@H](O)[C@H](O)[C@H]1O)C3` [rebaudioside A Form 7, rebaudioside A], for which the “hygroscopicity in DVS patterns” value in data set [1] is “little hygroscopicity”. For the molecule `C=C1C[C@@]23CC[C@H]4[C@@](C)(CCC[C@@]4(C)C(=O)O[C@@H]4O[C@H](CO)[C@@H](O)[C@H](O)[C@H]4O)[C@@H]2CC[C@]1(O[C@@H]1O[C@H](CO)[C@@H](O)[C@H](O[C@@H]2O[C@H](CO)[C@@H](O)[C@H](O)[C@H]2O)[C@H]1O[C@@H]1O[C@H](CO)[C@@H](O)[C@H](O)[C@H]1O)C3` [Rebaudioside A], the “toxicity and side effect” value in data set [2] was “without any toxicity and side effect”. Besides, the “purity change by HPLC compared to the starting material” value in data set [3] is “less than 0.5%”.
